Reference: patent US4122274A, “3-Tetrazolo-5,6,7,8-substituted-pyrido[1,2-a]pyrimidin-4-ones” (priority 1977, dated 1978)
Where two headings read alike, the source gives them in different places.

Key:
[1] = must be administered by inhalation; cited from earlier work
[2] = tested on: rat Passive Cutaneous Anaphylaxis (PCA) response; assay: reagin-mediated rat Passive Cutaneous Anaphylaxis (PCA) screening test; format: in vivo, rat (Sprague-Dawley)
Description: The reagin-mediated rat Passive Cutaneous Anaphylaxis (PCA) screening test used to evaluate the present compounds is generally regarded as one of the best animal models for use in predicting the antiallergy activity of test compounds in man. Briefly, the method consists of passive sensitization of skin sites on the test animals with reaginic antibodies followed after 24 hours by administration of the test drug and antigen challenge. The allergic response is measured by use of Evans' blue dye and is evaluated by the spot diameter at the injection site. Details of the test are provided below.
A substituted ovalbumin antigen is used both as immunogen and challenging antigen. The antigen is prepared as follows: 500 mg. ovalbumin (EA) and 500 mg. K2 CO3 are dissolved in 25 ml. distilled H2 O and stirred at room temperature for 5 minutes. Five hundred (500) mg. dinitrobenzene sulfonic acid, Na^+ salt, (previously recrystallized from hot absolute ethanol) is then added slowly with continued stirring. The reaction mixture is then immediately placed in the dark and allowed to proceed for 2 hours with constant stirring. After 2 hours the mixture is placed in suitable dialysis tubing and dialyzed against 5 changes (4 liters each) of distilled H2 O at 5° C. After dialysis the product is lyophilized and stored at room temperature in a brown or amber container. The antigen obtained will appear as a light yellow, amorphous solid which is very soluble in water or saline. It is designated as DNP denatured ovalbumin (DNP-d EA).
Adult, male Sprague-Dawley rats are used as a source of reagin-rich antisera for the PCA model. Immunization is by a combination of DNP-d EA on Al(OH)3 gel and B. pertussis vaccine. Preparation of the DNP-d EA-gel immunogen is as follows: Dissolve the DNP-d EA in TBS so as to give a concentration of 10 mg./ml. Slowly add 1 ml. of this solution to 10 ml. Al(OH)3 gel (10 mg. solids/ml.) with constant stirring at room temperature. Stir the mixture an additional 30 minutes to insure a uniform adsorption of antigen on gel.
The resulting preparation is then used in combination with phase I B. pertussis vaccine to immunize male S/D rats as follows: For each rat administer 0.1 ml. DNP-d EA-gel suspension intramuscularly in each hind leg (200 μg DNP-d EA and 2 mg. gel total dose). Follow these injections by the intraperitoneal administration of 1.0 ml. B. pertussis vaccine (10-20 × 10^9 organisms). The use of light ether anesthesia during this procedure is recommended to insure proper intramuscular and intraperitoneal injections. Nine days following immunization (but no longer than 10) the animals are exsanguinated by cardiac puncture or abdominal aorta cannulation under ether or pentobarbital anesthesia. The collected whole blood is allowed to clot, the serum separated by centrifugation and the individual serum samples stored frozen until assayed for IgE content.
Individual serum samples should be screened for reaginic antibody concentration before being pooled with other sera, as not all rats respond to immunization procedures with reagin production. A 1:50 saline dilution of serum from each immunized rat is used for this purpose. Intradermal injections of 0.05 ml. of the diluted sera are made in the shaven backs of two small female recipient rats, 100-120 gms. Several serum samples can be tested simultaneously in recipient animals. After a 24 to 48 hour latent period antigen challenge is accomplished by intravenous administration to each rat of 1 mg. DNP-d EA in 0.5 ml. of 0.5% Evans' blue dye in saline. Sera which show positive PCA reactions at the 1:50 dilution, as measured 20 to 30 minutes post-challenge are pooled, dispensed in small aliquots and stored at -70° C. or lower until used. Negative sera may be discarded.
The IgE titer of the antisera pool should then be determined. […]

[3] = tested on: release of mediators, e.g. histamine and SRS-A; settings: administered to asthmatic patients prior to inhalation of specific antigens; cited from earlier work
[4] = treatment of bronchial asthma; cited from earlier work
[5] = iv, test compounds given 1-5 min prior to antigen challenge, DSCG at time of challenge, read-out: ID50 (dose of compound that inhibits 50% of the response), i.v.
[6] = po, 10 min prior to antigen challenge, read-out: ID50 (dose of compound that inhibits 50% of the response), p.o.

SMILES | ED50 [2, 6] [mg/kg] | further results
O=C(O)c1cc(=O)c2c(OCC(O)COc3cccc4oc(C(=O)O)cc(=O)c34)cccc2o1 [DSCG, Disodium cromoglycate, reference compound] | > 30 | oral absorption [1]: not orally absorbed; ED50 [2, 5]: ~0.6 mg/kg; inhibition of release of mediators, e.g. histamine and SRS-A [3]: inhibits the release of mediators
O=c1c(-c2nnn[nH]2)cnc2ccccn12 [Example 1, 3-(1H-Tetrazol-5-yl)-4H-pyrido[1,2-a]pyrimidin-4-one] | ~0.1 | ED50 [2, 5]: 0.06 mg/kg
Cc1ccc2ncc(-c3nnn[nH]3)c(=O)n2c1 [Example 4, 7-Methyl-3-(1H-tetrazol-5-yl)-4H-pyrido[1,2-a]pyrimidin-4-one] | ~0.1 | 
Cc1ccn2c(=O)c(-c3nnn[nH]3)cnc2c1 [Example 5, 8-Methyl-3-(1H-tetrazol-5-yl)-4H-pyrido[1,2-a]pyrimidin-4-one] | 2.4 | 
CCc1ccc2ncc(-c3nnn[nH]3)c(=O)n2c1 [Example 6, 7-Ethyl-3-(1H-tetrazol-5-yl)-4H-pyrido[1,2-a]pyrimidin-4-one] | 0.04 | 
CCCCc1ccc2ncc(-c3nnn[nH]3)c(=O)n2c1 [Example 7, 7-n-Butyl-3-(1H-tetrazol-5-yl)-4H-pyrido[1,2-a]pyrimidin-4-one] | ~0.1 | 
O=c1c(-c2nnn[nH]2)cnc2ccc(-c3ccccc3)cn12 [Example 8, 7-Phenyl-3-(1H-tetrazol-5-yl)-4H-pyrido[1,2-a]pyrimidin-4-one] | 0.05 | 
O=c1c(-c2nnn[nH]2)cnc2ccc(Cl)cn12 [Example 9, 7-Chloro-3-(1H-tetrazol-5-yl)-4H-pyrido[1,2-a]pyrimidin-4-one] | ~0.07 | 
Cc1cccn2c(=O)c(-c3nnn[nH]3)cnc12 [Example 10, 9-Methyl-3-(1H-tetrazol-5-yl)-4H-pyrido[1,2-a]pyrimidin-4-one] | 0.0066 | 
Cc1cc(C)c2ncc(-c3nnn[nH]3)c(=O)n2c1 [Example 11, 7,9-Dimethyl-3-(1H-tetrazol-5-yl)-4H-pyrido[1,2-a]pyrimidin-4-one] | 0.014 | 
CCc1cccn2c(=O)c(-c3nnn[nH]3)cnc12 [Example 12, 9-Ethyl-3-(1H-tetrazol-5-yl)-4H-pyrido[1,2-a]pyrimidin-4-one] | ~0.0033 | 
CN1[C@@H]2CC[C@H]1C[C@@H](OC(=O)C(CO)c1ccccc1)C2 (stereo partly drawn) [atropine] |  | side effects [4]: cardiac stimulation and gastrointestinal distress
CNC[C@H](O)c1ccc(O)c(O)c1 [epinephrine] |  | side effects [4]: cardiac stimulation and gastrointestinal distress
CC(C)NCC(O)c1ccc(O)c(O)c1 (stereo not drawn) [isoproterenol] |  | side effects [4]: cardiac stimulation and gastrointestinal distress
